Assay results from ChEMBL document CHEMBL1140427, “Semi-rational design of (north)-methanocarba nucleosides as dual acting A(1) and A(3) adenosine receptor agonists: novel prototypes for cardioprotection” (J Med Chem, 2005).

Legend:
Adenosine receptor A1 [1] = biological target: T1, Adenosine receptor A1 (Homo sapiens, UniProt P30542); experiment: Displacement of [3H]R-PIA or [3H]CGS 21680 from human adenosine A1 receptor in CHO cells; type: cell-based
T1 sequence (P30542 whole entry): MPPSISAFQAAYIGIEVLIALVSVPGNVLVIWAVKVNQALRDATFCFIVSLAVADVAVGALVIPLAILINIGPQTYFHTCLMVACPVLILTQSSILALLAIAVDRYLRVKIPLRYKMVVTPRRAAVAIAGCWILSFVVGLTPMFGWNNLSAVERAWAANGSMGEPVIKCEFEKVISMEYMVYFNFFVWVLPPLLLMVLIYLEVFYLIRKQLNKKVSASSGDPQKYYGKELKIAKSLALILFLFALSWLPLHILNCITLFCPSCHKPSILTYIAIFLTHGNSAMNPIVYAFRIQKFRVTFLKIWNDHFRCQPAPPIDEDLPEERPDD

Adenosine receptor A2a = Adenosine receptor A2a (Homo sapiens, UniProt P29274); experiment: Displacement of [3H]R-PIA or [3H]CGS 21680 from human adenosine A2A receptor in CHO cells; type: cell-based
Chain of Adenosine receptor A2a (P29274 whole entry): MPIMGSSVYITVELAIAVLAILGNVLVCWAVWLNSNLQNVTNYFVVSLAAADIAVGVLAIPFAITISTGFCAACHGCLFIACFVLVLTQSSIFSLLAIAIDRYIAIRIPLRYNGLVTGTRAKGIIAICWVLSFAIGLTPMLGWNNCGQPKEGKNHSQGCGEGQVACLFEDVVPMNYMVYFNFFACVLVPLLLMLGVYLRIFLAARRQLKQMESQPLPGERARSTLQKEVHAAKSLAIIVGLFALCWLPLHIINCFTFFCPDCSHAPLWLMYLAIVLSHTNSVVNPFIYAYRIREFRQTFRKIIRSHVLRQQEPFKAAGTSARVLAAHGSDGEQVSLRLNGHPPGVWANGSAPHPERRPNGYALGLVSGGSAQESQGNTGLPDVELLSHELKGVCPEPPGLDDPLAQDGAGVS

Adenosine receptor A3 [2] = biological target: T2, Adenosine receptor A3 (Homo sapiens, UniProt P0DMS8); experiment: Binding affinity to human adenosine A3 receptor in CHO cells
T2 sequence (P0DMS8 whole entry): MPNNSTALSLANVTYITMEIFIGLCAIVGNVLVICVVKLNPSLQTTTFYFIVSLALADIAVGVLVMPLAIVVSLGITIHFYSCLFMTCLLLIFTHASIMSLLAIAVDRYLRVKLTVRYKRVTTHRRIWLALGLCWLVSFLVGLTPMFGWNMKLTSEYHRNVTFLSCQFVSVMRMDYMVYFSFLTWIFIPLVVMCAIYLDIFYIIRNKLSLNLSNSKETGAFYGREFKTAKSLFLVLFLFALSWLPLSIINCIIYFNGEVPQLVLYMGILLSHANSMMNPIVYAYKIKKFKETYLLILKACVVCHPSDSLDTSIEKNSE

Adenosine receptor A1 [3] = biological target: T3, Adenosine receptor A1 (Rattus norvegicus, UniProt P25099); experiment: Binding affinity to rat adenosine A1 receptor in CHO cells
T3 sequence (P25099 whole entry): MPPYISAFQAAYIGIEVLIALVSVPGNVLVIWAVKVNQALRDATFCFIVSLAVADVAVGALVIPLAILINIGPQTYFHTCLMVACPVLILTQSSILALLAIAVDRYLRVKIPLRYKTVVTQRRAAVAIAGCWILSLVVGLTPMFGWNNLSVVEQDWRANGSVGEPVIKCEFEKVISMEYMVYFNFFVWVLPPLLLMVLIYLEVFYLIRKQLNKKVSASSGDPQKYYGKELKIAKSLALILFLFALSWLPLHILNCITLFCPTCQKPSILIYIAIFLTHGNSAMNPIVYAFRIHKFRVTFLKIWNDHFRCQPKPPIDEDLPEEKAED

[4] = biological target: T4, Adenosine receptor A3 (Homo sapiens) (UniProt P0DMS8); experiment: Maximal agonist effect at human adenosine A3 receptor in CHO cells at 10 uM by the inhibition of forskolin-stimulated cAMP production; type: functional, cell-based; design: scale not given: the % may be the effect or the level left
T4 sequence (whole entry): T2 sequence (P0DMS8 whole entry)

Adenosine receptor A1 [5] = biological target: T1, Adenosine receptor A1; experiment: Agonistic effect at human adenosine A1 receptor in CHO cells; type: functional, cell-based
Adenosine receptor A3 [6] = biological target: T2, Adenosine receptor A3; experiment: Agonistic effect at human adenosine A3 receptor in CHO cells; type: functional, cell-based
Adenosine receptor A2b = biological target: T5, Adenosine receptor A2b (Homo sapiens, UniProt P29275); experiment: Agonistic effect at human adenosine A2B receptor in CHO cells; type: functional, cell-based
T5 sequence (P29275 whole entry): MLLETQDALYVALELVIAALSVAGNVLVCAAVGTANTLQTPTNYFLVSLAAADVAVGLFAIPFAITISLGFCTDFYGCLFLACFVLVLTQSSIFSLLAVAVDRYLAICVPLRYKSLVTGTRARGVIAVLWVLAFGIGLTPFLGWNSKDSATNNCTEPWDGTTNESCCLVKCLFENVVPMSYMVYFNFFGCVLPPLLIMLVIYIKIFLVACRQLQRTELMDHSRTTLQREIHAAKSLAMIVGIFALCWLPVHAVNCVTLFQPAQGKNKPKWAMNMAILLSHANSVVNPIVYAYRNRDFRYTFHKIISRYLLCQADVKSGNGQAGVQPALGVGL

Adenosine receptor A3 [7] = biological target: T6, Adenosine receptor A3 (Rattus norvegicus, UniProt P28647); experiment: Binding affinity to rat adenosine A3 receptor in CHO cells; type: cell-based
T6 sequence (P28647 whole entry): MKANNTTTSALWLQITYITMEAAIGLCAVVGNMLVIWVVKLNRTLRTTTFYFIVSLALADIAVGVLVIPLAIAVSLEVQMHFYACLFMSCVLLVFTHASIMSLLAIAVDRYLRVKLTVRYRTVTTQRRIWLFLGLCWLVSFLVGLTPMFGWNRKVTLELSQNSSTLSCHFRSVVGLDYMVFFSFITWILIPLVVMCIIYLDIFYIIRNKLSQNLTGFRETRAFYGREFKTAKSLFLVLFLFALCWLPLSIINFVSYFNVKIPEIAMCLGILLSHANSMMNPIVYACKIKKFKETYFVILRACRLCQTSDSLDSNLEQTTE

SMILES | Ki (Adenosine receptor A2a) | Ki (Adenosine receptor A3 [2]) | Activity [4] | EC50 (Adenosine receptor A2b) | Ki (Adenosine receptor A3 [7]) | Ki (Adenosine receptor A1 [1]) | Ki (Adenosine receptor A1 [3]) | EC50 (Adenosine receptor A1 [5]) | EC50 (Adenosine receptor A3 [6])
CNC(=O)C12C[C@@H]1[C@@H](n1cnc3c(NC4CCCC4)nc(Cl)nc31)[C@H](O)[C@@H]2O (single isomer, unassigned) | 3250 nM | 3.7 nM | 101% | > 10000 nM |  | 18.3 nM | 17.4 nM | 8.2 nM | 2.8 nM
OC[C@H]1O[C@@H](n2cnc3c(NC4CCCC4)ncnc32)[C@H](O)[C@@H]1O [N6-CYCLOPENTYLADENOSINE] | 462 nM | 240 nM | 72% |  |  |  |  |  | 
CNC(=O)C12C[C@@H]1[C@@H](n1cnc3c(NC4CCCC4)ncnc31)[C@H](O)[C@@H]2O (single isomer, unassigned) | 6420 nM | 13.1 nM | 93% | > 10000 nM | 10.2 nM |  |  |  | 

Second part, led by results:

Ki (Adenosine receptor A2a) | Ki (Adenosine receptor A3 [2]) | Activity [4] | EC50 (Adenosine receptor A2b) | Ki (Adenosine receptor A3 [7]) | SMILES | Ki (Adenosine receptor A1 [1]) | Ki (Adenosine receptor A1 [3]) | EC50 (Adenosine receptor A1 [5]) | EC50 (Adenosine receptor A3 [6])
> 10000 nM | 14.6 nM | 92% | > 10000 nM | 9.6 nM | CNC(=O)C12C[C@@H]1[C@@H](n1cnc3c(NC4C5CCC4CC5)nc(Cl)nc31)[C@H](O)[C@@H]2O (single isomer, unassigned) | 190 nM |  |  | 
 | 112 nM | 112% |  | 229 nM | OC[C@H]1O[C@@H](n2cnc3c(NC4C5CCC4CC5)ncnc32)[C@H](O)[C@@H]1O (stereo partly specified) |  |  |  | 
 |  | 0% |  |  | OC[C@H]1O[C@@H](n2cnc3c(NC4CCCC4)nc(Cl)nc32)[C@H](O)[C@@H]1O |  |  |  | 
